Experimental data published in patent publication US20110039721A1, “METHOD FOR PREDICTION ABOUT CARCINOGENICITY OF SUBSTANCE IN RODENT” (Chemicals Evaluation and Research Institute, priority 2007, published 2011).

Legend:
[1] = classification of the substance (M+/M−); cited from earlier work
rodent = details: classification of the substance (C+/C−); cited from earlier work
liver = details: classification of the substance (Cr+/Cr−); cited from earlier work
[2] = system: mRNA expressed from the genes (A) to (D) in rat liver; test: Behavior of genes (mRNA expression level, oligo-DNA microarray) in rat liver after 28-day oral administration; assay type: in vivo
How it was run: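 Rat liver RNA after 28 days of daily gavage dosing (male F344, 5 weeks old, four per group). A change reaching 1.5-fold, or 1/1.5, against solvent control scores as significant; opposite direction versus another carcinogen scores as not significant.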

[3] = gene group (A), Unigene No. Rn.167075
[4] = gene group (C), Unigene No. Rn.120914

## Nc1cc([N+](=O)[O-])ccc1C(=O)O [TS082, 4-Nitroanthranilic acid]
[1]
  Mutagenicity by Ames test: M+
rodent
  Carcinogenicity: C−
liver
  Liver carcinogenicity: Cr−
[2]; gene group (A), Unigene No. Rn.144554
  Behavior of gene caused by administration of chemical substance, Gene No. 4846: −
[2]; [3]
  Behavior of gene caused by administration of chemical substance, Gene No. 2026: −
  Behavior of gene caused by administration of chemical substance, Gene No. 4218: −
[2]; gene group (A), Unigene No. Rn.5834
  Behavior of gene caused by administration of chemical substance, Gene No. 6182: +
[2]; gene group (A), Unigene No. Rn.9836
  Behavior of gene caused by administration of chemical substance, Gene No. 5600: −
[2]; gene group (B), Unigene No. Rn.1430
  Behavior of gene caused by administration of chemical substance, Gene No. 1494: +
[2]; gene group (B), Unigene No. Rn.19329
  Behavior of gene caused by administration of chemical substance, Gene No. 2045: −
[2]; gene group (B), Unigene No. Rn.21240
  Behavior of gene caused by administration of chemical substance, Gene No. 2203: −
[2]; gene group (C), Unigene No. Rn.106184
  Behavior of gene caused by administration of chemical substance, Gene No. 533: +
[2]; gene group (C), Unigene No. Rn.108075
  Behavior of gene caused by administration of chemical substance, Gene No. 725: −
[2]; gene group (C), Unigene No. Rn.11766
  Behavior of gene caused by administration of chemical substance, Gene No. 1163: −
[2]; gene group (C), Unigene No. Rn.118529
  Behavior of gene caused by administration of chemical substance, Gene No. 4973: +
[2]; gene group (C), Unigene No. Rn.119024
  Behavior of gene caused by administration of chemical substance, Gene No. 4095: +
[2]; [4]
  Behavior of gene caused by administration of chemical substance, Gene No. 1334: −
  Behavior of gene caused by administration of chemical substance, Gene No. 6620: −
[2]; gene group (C), Unigene No. Rn.123063
  Behavior of gene caused by administration of chemical substance, Gene No. 6303: +
[2]; gene group (C), Unigene No. Rn.143213
  Behavior of gene caused by administration of chemical substance, Gene No. 5878: −
[2]; gene group (C), Unigene No. Rn.144946
  Behavior of gene caused by administration of chemical substance, Gene No. 1131: +
[2]; gene group (C), Unigene No. Rn.14744
  Behavior of gene caused by administration of chemical substance, Gene No. 1562: +
[2]; gene group (C), Unigene No. Rn.1647
  Behavior of gene caused by administration of chemical substance, Gene No. 1741: +
[2]; gene group (C), Unigene No. Rn.164817
  Behavior of gene caused by administration of chemical substance, Gene No. 893: +
[2]; gene group (C), Unigene No. Rn.167685
  Behavior of gene caused by administration of chemical substance, Gene No. 6026: −
[2]; gene group (C), Unigene No. Rn.185941
  Behavior of gene caused by administration of chemical substance, Gene No. 154: +
[2]; gene group (C), Unigene No. Rn.18728
  Behavior of gene caused by administration of chemical substance, Gene No. 1993: +
[2]; gene group (C), Unigene No. Rn.201760
  Behavior of gene caused by administration of chemical substance, Gene No. 813: −
[2]; gene group (C), Unigene No. Rn.23969
  Behavior of gene caused by administration of chemical substance, Gene No. 2494: −
[2]; gene group (C), Unigene No. Rn.24561
  Behavior of gene caused by administration of chemical substance, Gene No. 2546: +
[2]; gene group (C), Unigene No. Rn.43232
  Behavior of gene caused by administration of chemical substance, Gene No. 3776: +
[2]; gene group (C), Unigene No. Rn.4620
  Behavior of gene caused by administration of chemical substance, Gene No. 3929: +
[2]; gene group (C), Unigene No. Rn.9757
  Behavior of gene caused by administration of chemical substance, Gene No. 1119: +
[2]; gene group (C), Unigene No. Rn.9779
  Behavior of gene caused by administration of chemical substance, Gene No. 6742: +
[2]; gene group (C), Unigene No. Rn.9862
  Behavior of gene caused by administration of chemical substance, Gene No. 5634: +
[2]; gene group (D), Unigene No. Rn.9939
  Behavior of gene caused by administration of chemical substance, Gene No. 5726: −
